Read-outs that look alike come from different tables or passages of the source.
Assays:
[1] = system: Coxsackie B3 (Nancy strain) virus; test: CVB3-induced pancreatitis mouse model; type: in vivo; conditions: Coxsackie B3 Nancy strain infected SJL mice, 4 different dosages, treated 2 h pre-infection then once daily for 3 days
Protocol: Compounds of the present invention were studied in a CVB3 induced pancreatitis mouse model as described by van der Schaar et al (Antimicrob. Agents Chemother. 2013, 57(10):4971-4981). Animals (SJL mice) were infected intraperitoneally with 0.3 ml Coxsackie B3 (Nancy strain) virus (log TCID50=8). The animals were treated 2 h pre-infection and then once daily for 3 days. The animals were euthanized and organs were collected for pancreatitis evaluation by histopathology and for virus titer determination by immunohistochemistry and polymerase chain reaction (PCR). Pancreata were obtained from infected and uninfected control animals and from animals treated with 4 different dosages of Example 8, and HE-stained slides of the organs were prepared, studied and scored for signs of inflammation and necrosis on a scale from 0 to 3, as follows: 0=no abnormalities. […] The virus titer in the organs was determined by immunohistochemistry using the Dako 5-D8/1 monoclonal mouse antibody and the titer was scored on a scale from 0 to 4, where 0 indicates no infection and 4 corresponds to the highest determined virus titer (FIG. 4). The Ct values from PCR detection of virus titers were determined (FIG. 5). […] Corresponding studies were also performed on Examples 2, 8 and 20 at a dosage of 50 mg/kg/day and pancreatitis scoring and Ct values were determined (FIG. 6).

in vivo = test: in vivo; set-up: species or system Sprague Dawley rats; conditions: Sprague Dawley, rat, po
Protocol: Based on previous toxicity tests with analogs and pharmacokinetic data, repeated dose toxicity and toxicokinetic studies were conducted to generate information on the toxic characteristics of some representative compounds of the invention, viz. Example 8 and Example 12, respectively, when administered orally by gavage to Sprague Dawley rats for a period of 7 consecutive days. The study plan for the studies was by current ICH guidelines for 7 days toxicity studies and the No Observed Adverse Effect Level (NOAEL) of Example 8 and Example 12 was determined as 60 mg/kg body weight/day and 50 mg/kg bodyweight/day respectively when administered once daily orally to Sprague Dawley rats for 7 consecutive days under the tested dose levels and experimental conditions employed.

EV71 = test: Time of addition assay; type: cell-based, Enterovirus 71; conditions: Enterovirus A, 100 nM, EV71 at high titer
Protocol: The titer of the virus was determined by the standard method of tissue culture infective dose (TCID50) on cells. Briefly, cells were infected with 50 μl of virus suspension, and diluted 10-fold in media. The plates were incubated in 37° C. with 5% CO2 for 3-7 days and cells were inspected daily for CPE. After determining CPE, plates were stained with Gram's Crystal Violet solution and optical density was read at 540 nm. […] Substances at a final concentration of 0.1 nM-1 μM and the virus were added to the cells and incubated for 3-7 days depending on the virus and cell line used. As controls, uninfected cells and cells infected with virus (no substance) were included on each plate. The cells were stained with crystal violet after determining the CPE on infected controls and the optical density was read at 540 nm. The inhibition capacity was calculated as a % by comparison with non-infected and infected controls. Time of addition assay The assay was performed like the “in vitro assay in mammalian cell culture” described above with the exception that substance was added one hour pre inoculation (−1 h), at inoculation (0 h), and 2 hours (+2 h), 6 hours (+6 h) or 24 hours (+24 h) past inoculation. The virus EV71 was used at high titer for the test.

SMILES | Dose-response of pancreatitis scoring and virus titer [1] | NOAEL at 7 days (in vivo) [mg/kg/day] | inhibition at 0.1 µM (EV71; 0 h, substance added at inoculation, read-out: Inhibition of cytopathogenic effect, 0 h) [%] | inhibition at 0.1 µM (EV71; 1 h, substance added one hour pre inoculation, read-out: Inhibition of cytopathogenic effect, −1 h) [%] | inhibition at 0.1 µM (EV71; substance added 2 hours past inoculation, read-out: Inhibition of cytopathogenic effect, +2 h) [%] | inhibition at 0.1 µM (EV71; substance added 6 hours past inoculation, read-out: Inhibition of cytopathogenic effect, +6 h) [%] | inhibition at 0.1 µM (EV71; substance added 24 hours past inoculation, read-out: Inhibition of cytopathogenic effect, +24 h) [%]
Cc1cc(NCc2ccncc2)n2nc(C)c(-c3ccc4c(c3)c(C)nn4C)c2n1 [Example 8, 3-(1,3-dimethyl-1H-indazol-5-yl)-2,5-dimethyl-N-(pyridin-4-ylmethyl)pyrazolo[1,5-a]pyrimidin-7-amine] | very good dose-response | 60 |  |  |  |  | 
Cc1nc(NCc2ccncc2)n2nc(C)c(-c3ccc4c(c3)c(C)nn4C)c2n1 [Example 20, 8-(1,3-dimethyl-1H-indazol-5-yl)-2,7-dimethyl-N-(pyridin-4-ylmethyl)pyrazolo[1,5-a][1,3,5]triazin-4-amine] |  |  | 94 | 85 | 95 | 99 | 2

Source: US11001587B2, “Substituted indazoles as phosphatidylinositol kinase inhibitors” (CUROVIR AB, priority 2017, dated 2021)
